Patent US9850283B2, “Macrocyclic inhibitors of the PD-1/PD-L1 and CD80(B7-1)/PD-L1 protein/protein interactions” (BRISTOL-MYERS SQUIBB COMPANY, priority 2013, dated 2017)
Where two headings read alike, the source gives them in different places. Positions of bridges follow the written chain, without caps; N, C: chain ends. Non-standard residues stand in square brackets, D forms with d. Residues, ends and D or L forms follow the SMILES beside them. ξ: configuration not given here. Trp(1-CH2COOH) = N[C@@H](Cc1cn(CC(=O)O)c2ccccc12)C(=O)O; Phe(3,5-Cl2) = N[C@@H](Cc1cc(Cl)cc(Cl)c1)C(=O)O; Phe(F5) = N[C@@H](Cc1c(F)c(F)c(F)c(F)c1F)C(=O)O; Bta = N[C@@H](Cc1csc2ccccc12)C(=O)O; NMeIle(3ξ) = CCC(C)[C@H](NC)C(=O)O; cisHyp = O=C(O)[C@@H]1C[C@H](O)CN1; Hyp = O=C(O)[C@@H]1C[C@@H](O)CN1; NMeF = CN[C@@H](Cc1ccccc1)C(=O)O; dNMeNle = CCCC[C@@H](NC)C(=O)O; NMeNle = CCCC[C@H](NC)C(=O)O; NMeA = CN[C@@H](C)C(=O)O; Dab = NCC[C@H](N)C(=O)O; dAze = O=C(O)[C@H]1CCN1; Dap = NC[C@H](N)C(=O)O; Aib = CC(C)(N)C(=O)O; ξC = NC(CS)C(=O)O; Sar = CNCC(=O)O

Legend:
[1] = molecular target: T1, Human PD-L1/PD-1 (Homo sapiens, UniProt Q9NZQ7); assay: HTRF PD-1-Ig/PD-L1-His binding assay (human PD-L1)
T1 construct: made in house; host or cells: HEK293T
Procedure, shortened: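 Steps: truncated PD-1-Ig and PD-L1-His fusions are incubated in dPBS containing 0.1% (w/v) BSA and 0.05% (v/v) Tween-20. Detection antibodies are then added (Eu cryptate anti-Ig at 1 nM final, APC anti-His at 20 nM final), and time-resolved FRET is measured.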

[2] = molecular target: T2, LK35.2-hPD-L1 cells / PE-labeled PD-1-Ig (Homo sapiens, UniProt Q9NZQ7); assay: LK35.2-hPD-L1 cell binding high-content screening assay; assay type: cell-based
T2 construct: expressed in transfected cells; host or cells: LK35.2 mouse B cell line
Procedure, shortened: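 Readout: high-content imaging of PE-PD-1-Ig bound to LK35.2-hPD-L1 cells. Cells plated overnight (RPMI/10% FCS); compound + 1 nM PE-PD-1-Ig, 1 h, 37 °C; 3× dPBS wash before imaging.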

[3] = cluster symbol, read-out: HTRF IC50 cluster
[4] = cell binding assay, cell line not given, cluster symbol, read-out: CBA IC50 cluster
[5] = cluster symbol, cell line of CBA not given (LK35.2-hPD-L1 or 293T-hPD-L1), read-out: CBA IC50 cluster

T2 sequence (Q9NZQ7 19-290): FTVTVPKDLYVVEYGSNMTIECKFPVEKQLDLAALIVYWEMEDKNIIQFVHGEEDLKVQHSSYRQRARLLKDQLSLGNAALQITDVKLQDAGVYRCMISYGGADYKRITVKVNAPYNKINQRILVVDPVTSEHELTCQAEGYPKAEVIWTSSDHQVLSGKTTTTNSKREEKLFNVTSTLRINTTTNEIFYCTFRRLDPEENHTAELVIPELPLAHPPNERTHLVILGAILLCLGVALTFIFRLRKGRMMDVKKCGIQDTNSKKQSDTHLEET
T1 sequence (Q9NZQ7 with tags, fused parts or gaps): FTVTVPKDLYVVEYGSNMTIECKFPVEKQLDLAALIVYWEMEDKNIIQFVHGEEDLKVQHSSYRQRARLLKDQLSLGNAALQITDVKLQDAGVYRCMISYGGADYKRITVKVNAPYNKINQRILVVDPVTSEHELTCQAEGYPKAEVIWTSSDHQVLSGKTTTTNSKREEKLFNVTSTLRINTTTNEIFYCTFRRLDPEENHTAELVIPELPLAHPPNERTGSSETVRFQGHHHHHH

SMILES | IC50 [1, 3] [nM] | IC50 [2, 4] [nM] | IC50 [2, 5] [nM] | also measured
CCCC[C@@H]1C(=O)N[C@@H](CC(C)C)C(=O)N[C@H](C(=O)NCC(N)=O)CSCC(=O)N[C@@H](Cc2ccc(O)cc2)C(=O)N(C)[C@@H](C)C(=O)N[C@@H](CC(N)=O)C(=O)N2CCC[C@H]2C(=O)N[C@@H](CN)C(=O)N[C@@H](CC(C)C)C(=O)N2C[C@@H](O)C[C@H]2C(=O)N[C@@H](Cc2c[nH]c3ccccc23)C(=O)N[C@@H](CCN)C(=O)N[C@@H](Cc2cn(CC(=O)O)c3ccccc23)C(=O)N(C)[C@@H](CCCC)C(=O)N1C [Example 6046] ({CH2CO}-Y[NMeA]NP[Dap]L[cisHyp]W[Dab][Trp(1-CH2COOH)][NMeNle][dNMeNle]LCG-NH2; thioether N-14) | 0.385 to 6.74 | 0.158 to 4.71 |  | 
CCCC[C@H]1C(=O)N(C)[C@@H](CCCC)C(=O)N[C@@H](CCCNC(=N)N)C(=O)NC(C(=O)NCC(N)=O)CSCC(=O)N[C@@H](Cc2ccc(O)cc2)C(=O)N(C)[C@@H](C)C(=O)N[C@@H](CC(N)=O)C(=O)N2C[C@H](O)C[C@H]2C(=O)N[C@@H](Cc2cnc[nH]2)C(=O)N[C@@H](CC(C)C)C(=O)N2C[C@H](O)C[C@H]2C(=O)N[C@@H](Cc2c[nH]c3ccccc23)C(=O)N[C@@H](CO)C(=O)N[C@@H](Cc2csc3ccccc23)C(=O)N1C (some centres unmarked) [Example 9012] ({CH2CO}-Y[NMeA]N[Hyp]HL[Hyp]WS[Bta][NMeNle][NMeNle]R[ξC]G-NH2; thioether N-14) | 6.76 to 30.3 | 0.158 to 4.71 |  | 
CCCC[C@H]1C(=O)N(C)[C@@H](CCCC)C(=O)N[C@@H](CCCNC(=N)N)C(=O)NC(C(=O)NCC(N)=O)CSCC(=O)N[C@@H](Cc2ccc(O)cc2)C(=O)N(C)[C@@H](C)C(=O)N[C@@H](CC(N)=O)C(=O)N2C[C@H](O)C[C@H]2C(=O)N[C@@H](Cc2cnc[nH]2)C(=O)N[C@@H](CC(C)C)C(=O)N2CCC[C@H]2C(=O)N[C@@H](Cc2c[nH]c3ccccc23)C(=O)N[C@@H](CO)C(=O)N[C@@H](Cc2c[nH]c3ccccc23)C(=O)N1C (some centres unmarked) [Example 9011] ({CH2CO}-Y[NMeA]N[Hyp]HLPWSW[NMeNle][NMeNle]R[ξC]G-NH2; thioether N-14) |  |  |  | IC50 ([1]; numeric value, read-out: HTRF IC50 values): 9.4 nM; IC50 ([2]; cell binding assay, cell line not given, numeric value, read-out: CBA IC50 values): 13.5 nM
CCCC[C@H]1C(=O)N(C)[C@@H](CCCC)C(=O)N[C@@H](CCN)C(=O)N[C@H](C(=O)NCC(N)=O)CSCC(=O)N[C@@H](Cc2ccc(O)cc2)C(=O)N(C)[C@@H](C)C(=O)N[C@@H](CC(N)=O)C(=O)N2CCC[C@H]2C(=O)N[C@@H](Cc2cnc[nH]2)C(=O)N[C@@H](CCC(=O)O)C(=O)N2C[C@H](O)C[C@H]2C(=O)N[C@@H](Cc2csc3ccccc23)C(=O)N[C@@H](CO)C(=O)N[C@@H](Cc2c[nH]c3ccccc23)C(=O)N1C [Example 5054] ({CH2CO}-Y[NMeA]NPHE[Hyp][Bta]SW[NMeNle][NMeNle][Dab]CG-NH2; thioether N-14) | > 30.5 | > 74.3 |  | 
CCCC[C@H]1C(=O)N(C)[C@@H](CCCC)C(=O)N[C@@H](CCCNC(=N)N)C(=O)N[C@H](C(=O)NCC(N)=O)CSCC(=O)N[C@@H](Cc2ccccc2)C(=O)N(C)[C@@H](C)C(=O)N[C@@H](CC(N)=O)C(=O)N2CCC[C@H]2C(=O)N[C@@H](Cc2cnc[nH]2)C(=O)N[C@@H](CC(C)C)C(=O)N(C)CC(=O)N[C@@H](Cc2c[nH]c3ccccc23)C(=O)NC(C)(C)C(=O)N[C@@H](Cc2c[nH]c3ccccc23)C(=O)N1C [Example 1116] ({CH2CO}-F[NMeA]NPHL[Sar]W[Aib]W[NMeNle][NMeNle]RCG-NH2; thioether N-14) | > 30.5 |  | > 74.3 | 
CCCC[C@H]1C(=O)N(C)[C@@H](CCCC)C(=O)N[C@@H](CC(C)C)C(=O)N[C@H](C(=O)NCC(N)=O)CSCC(=O)N[C@@H](Cc2ccc(O)cc2)C(=O)N(C)[C@@H](C)C(=O)N[C@@H](CC(N)=O)C(=O)N2CCC[C@H]2C(=O)N[C@@H](Cc2c[nH]cn2)C(=O)NCC(=O)N2C[C@H](O)C[C@H]2C(=O)N[C@@H](Cc2c[nH]c3ccccc23)C(=O)N[C@@H](CO)C(=O)N[C@@H](Cc2c[nH]c3ccccc23)C(=O)N1C [Example 5122] ({CH2CO}-Y[NMeA]NPHG[Hyp]WSW[NMeNle][NMeNle]LCG-NH2; thioether N-14) |  |  |  | IC50 ([1]; value given instead of cluster, read-out: HTRF IC50 value): 34.8 nM; IC50 ([2]; cell binding assay, cell line not given, value given instead of cluster, read-out: CBA IC50 value): 134 nM
CCCC[C@H]1C(=O)N(C)CC(=O)N[C@@H](CC(=O)O)C(=O)N[C@@H](C(C)C)C(=O)N(C)[C@@H](Cc2ccccc2)C(=O)N[C@@H](Cc2ccc(O)cc2)C(=O)N(C)CC(=O)N[C@@H](Cc2c[nH]c3ccccc23)C(=O)N[C@@H](Cc2ccc(O)cc2)C(=O)N[C@@H](CC(C)C)C(=O)N[C@H](C(=O)NCC(N)=O)CSCC(=O)N[C@@H](Cc2cc(Cl)cc(Cl)c2)C(=O)N(C)[C@@H](Cc2ccccc2)C(=O)N1C [Example 3179] ({CH2CO}-[Phe(3,5-Cl2)][NMeF][NMeNle][Sar]DV[NMeF]Y[Sar]WYLCG-NH2; thioether N-13) | > 30.5 |  | 4.78 to 72.9 | 
CCCC[C@H]1C(=O)N(C)[C@@H](CCCC)C(=O)N[C@@H](C)C(=O)N[C@H](C(=O)NCC(N)=O)CSCC(=O)N[C@@H](Cc2ccc(O)cc2)C(=O)N(C)[C@@H](C)C(=O)N[C@@H](CC(N)=O)C(=O)N2CCC[C@H]2C(=O)N[C@@H](Cc2cnc[nH]2)C(=O)N[C@@H](CCC(=O)O)C(=O)N2C[C@H](O)C[C@H]2C(=O)N[C@@H](Cc2c[nH]c3ccccc23)C(=O)N[C@@H](CO)C(=O)N[C@@H](Cc2c[nH]c3ccccc23)C(=O)N1C [Example 1168] | 0.385 to 6.74 |  | 0.158 to 4.71 | 
CCCC[C@H]1C(=O)N(C)CC(=O)N[C@@H](CC(=O)O)C(=O)N[C@@H](C(C)C)C(=O)N(C)[C@@H](Cc2ccccc2)C(=O)N[C@@H](Cc2ccc(O)cc2)C(=O)N2CC[C@@H]2C(=O)N[C@@H](Cc2c[nH]c3ccccc23)C(=O)N[C@@H](Cc2ccc(O)cc2)C(=O)N[C@@H](CC(C)C)C(=O)N[C@H](C(=O)NCC(N)=O)CSCC(=O)N[C@@H](Cc2ccccc2)C(=O)N(C)[C@@H](Cc2ccccc2)C(=O)N1C [Example 3577] ({CH2CO}-F[NMeF][NMeNle][Sar]DV[NMeF]Y[dAze]WYLCG-NH2; thioether N-13) | 0.385 to 6.74 | 0.158 to 4.71 |  | 
CCCC[C@H]1C(=O)N[C@@H](CCCNC(=N)N)C(=O)N[C@H](C(=O)NCC(N)=O)CSCC(=O)N[C@@H](Cc2ccccc2)C(=O)N(C)[C@@H](C)C(=O)N[C@@H](CC(N)=O)C(=O)N2CCC[C@H]2C(=O)N[C@@H](Cc2cnc[nH]2)C(=O)N[C@@H](CC(C)C)C(=O)N(C)CC(=O)N[C@@H](Cc2c[nH]c3ccccc23)C(=O)N[C@@H](CO)C(=O)N[C@@H](Cc2c[nH]c3ccccc23)C(=O)N[C@@H](Cc2c(F)c(F)c(F)c(F)c2F)C(=O)N1C [Example 1058] ({CH2CO}-F[NMeA]NPHL[Sar]WSW[Phe(F5)][NMeNle]RCG-NH2; thioether N-14) | > 30.5 |  | > 74.3 | 
CCCC[C@H]1C(=O)N(C)[C@@H](C(C)CC)C(=O)N[C@@H](CN)C(=O)N[C@H](C(=O)NCC(N)=O)CSCC(=O)N[C@@H](Cc2ccc(O)cc2)C(=O)N(C)[C@@H](C)C(=O)N[C@@H](CC(N)=O)C(=O)N2CCC[C@H]2C(=O)N[C@@H](Cc2c[nH]cn2)C(=O)N[C@@H](CCC(=O)O)C(=O)N2C[C@H](O)C[C@H]2C(=O)N[C@@H](Cc2c[nH]c3ccccc23)C(=O)N[C@@H](CCN)C(=O)N[C@@H](Cc2c[nH]c3ccccc23)C(=O)N1C (some centres unmarked) [Example 5142] ({CH2CO}-Y[NMeA]NPHE[Hyp]W[Dab]W[NMeNle][NMeIle(3ξ)][Dap]CG-NH2; thioether N-14) | 6.76 to 30.3 | 4.78 to 72.9 |  | 
CCCC[C@H]1C(=O)N(C)CC(=O)N[C@@H](CC(=O)O)C(=O)N[C@@H](C(C)C)C(=O)N(C)[C@@H](Cc2ccccc2)C(=O)N[C@@H](Cc2ccc(O)cc2)C(=O)N(C)CC(=O)N[C@@H](Cc2c[nH]c3ccccc23)C(=O)N[C@@H](Cc2ccc(O)cc2)C(=O)N[C@@H](CC(C)C)C(=O)N[C@H](C(=O)NCC(N)=O)CSCC(=O)N[C@@H](Cc2cnc[nH]2)C(=O)N(C)[C@@H](Cc2ccccc2)C(=O)N1C [Example 3091] (HELM PEPTIDE1{[O=C(C[*:3])[*:2]].H.[meF].[CCCC[C@@H](C(=O)[*:2])N(C)[*:1]].[Sar].D.V.[meF].Y.[Sar].W.Y.L.C.G.[am]}$PEPTIDE1,PEPTIDE1,1:R3-14:R3$$$V2.0) | > 30.5 |  | > 74.3 | 
CCCC[C@H]1C(=O)N(C)[C@@H](CCCC)C(=O)N[C@@H](CCCNC(=N)N)C(=O)N[C@H](C(=O)NCC(N)=O)CSCC(=O)N[C@@H](Cc2ccccc2)C(=O)N(C)[C@@H](C)C(=O)N[C@@H](CC(N)=O)C(=O)N2CCC[C@H]2C(=O)N[C@@H](Cc2cnc[nH]2)C(=O)N[C@@H](CC(C)C)C(=O)N(C)CC(=O)N[C@@H](Cc2c[nH]c3ccccc23)C(=O)N[C@H](CO)C(=O)N[C@@H](Cc2c[nH]c3ccccc23)C(=O)N1C [Example 1065] ({CH2CO}-F[NMeA]NPHL[Sar]W[dS]W[NMeNle][NMeNle]RCG-NH2; thioether N-14) | > 30.5 |  | > 74.3 | 
